Results on eight compounds are retold here after patent US20120122820A1, “PRODRUGS AND THE USE THEREOF” (Bayer Schering Pharma Aktiengesellschaft, priority 2007, published 2012).

Structures are written as SMILES. ≈ marks a conversion by molar mass, not a printed value. Where a name gives a salt, the structure may show the parent alone.

Series [1] can be described thus: Stability in buffer at various pH values. The series is classed as physicochemical. Here is the method:
0.3 mg of the test substance is weighed into a 2 ml HPLC vial and 0.5 ml of acetonitrile or acetonitrile/DMSO (9:1) is added. The substance is dissolved by putting the sample vessel in an ultrasonic bath for about 10 seconds. Then 0.5 ml of the respective (buffer) solution is added, and the sample is again treated in the ultrasonic bath.
• pH 4: 1 liter of Millipore water is adjusted to pH 4.0 with 1 N hydrochloric acid; • pH 5: 0.096 mol of citric acid and 0.2 mol of sodium hydroxide ad 1 liter of water; • pH 7.4: 90.0 g of sodium chloride, 13.61 g of potassium dihydrogen phosphate and 83.35 g of 1 N sodium hydroxide solution are made up to 1 liter with water; this solution is then further diluted 1:10 with Millipore water. • pH 8: 0.013 mol of borax and 0.021 mol of hydrochloric acid ad 1 liter of water.
5 μl portions of the sample solution are analyzed by HPLC for their content of unchanged test substance, and of parent substance (A) produced, every hour over a period of 24 hours at 37° C. The percentage areas of the appropriate peaks are used for quantification.
HPLC method for Examples 1-21:
Agilent 1100 with DAD (G1314A), binary pump (G1312A), autosampler (G1329A), column oven (G1316A), thermostat (G1330A); column: Kromasil 100 C18, 60 mm×2.1 mm, 3.5 μm; column temperature: 30° C.; eluent A: water+5 ml of perchloric acid/liter, eluent B: acetonitrile; gradient: 0-1.0 min 98% A, 2% B; 1.0-9.0 min 2% A, 98% B; 9.0-13.0 min 2% A, 98% B; 13.0-13.5 min 98% A, 2% B; 13.5-15.0 min 98% A, 2% B; flow rate: 0.75 ml/min; UV detection: 210 nm.
HPLC method for Examples 22-40:
The ratios of the peak areas (F) at the respective time points in relation to the peak areas at the starting time are shown in Table 3 for representative exemplary embodiments: […]

A short description of series [2]: i.v. pharmacokinetics in Wistar rats. The series is classed as in vivo. The conditions noted are these: after i.v. bolus administration, male Wistar rats. The protocol:
On the day before administration of the substance, a catheter for obtaining blood is implanted in the jugular vein of the experimental animals (male Wistar rats, body weight 200-250 g) under Isofluran® anesthesia.
On the day of the experiment, a defined dose of the test substance is administered as solution into the tail vein using a Hamilton® glass syringe (bolus administration, duration of administration <10 s). Blood samples (8-12 time points) are taken through the catheter sequentially over the course of 24 h after administration of the substance. Plasma is obtained by centrifuging the samples in heparinized tubes. Acetonitrile is added to a defined plasma volume per time point to precipitate proteins. After centrifugation, test substance and, where appropriate, known cleavage products of the test substance in the supernatant are determined quantitatively using a suitable LC/MS-MS method.
The measured plasma concentrations are used to calculate pharmacokinetic parameters of the test substance and of the active ingredient compound (A) liberated therefrom, such as AUC, Cmax, T1/2 (half-life) and CL (clearance).

Series [3] has as its system heart rate of anesthetized rats. The experiment in a line: Influence on the heart rate of anesthetized rats. The series is classed as in vivo. The conditions noted are these: maximum decrease in the first 30 min after i.v. bolus of 100 μg/kg of (A) or equivalent dosages; anesthetized male Wistar rats. Here is the method: Male Wistar rats with a body weight above 250 g are employed. In the night before the experiment, the animals receive no feed but still have free access to drinking water. Preparation and investigations are carried out under Trapanal® anesthesia (100 mg/kg i.p.). Injection and infusion take place through a catheter in the jugular vein, and the blood pressure is recorded via a catheter in the femoral artery (transducer: Braun, Melsungen). After the preparation, the animals are connected to a continuous infusion of physiological saline solution to compensate fluid losses. Test substance or placebo solution are administered intravenously as bolus after an equilibration time of about 1 h. Heart rate and arterial blood pressure are recorded during the equilibration and over a period of at least 30 min after the bolus injection with the aid of a digital evaluation program.
Table 5 lists the maximum heart rate decrease in the first 30 min after an i.v. bolus of 100 μg/kg of the active substance (A) or of equivalent dosages of representative exemplary embodiments: […]

The nature of series [4]: Determination of the solubility (24 h shaking at room temperature, ultracentrifugation, HPLC). Format: physicochemical. The note with it: thermodynamic from solid. The protocol: The test substance is suspended in water or dilute hydrochloric acid (pH 4) [Examples 1-21] or in 5% strength aqueous dextrose solution [Examples 22-40]. This suspension is shaken at room temperature for 24 h. After ultracentrifugation at 224 000 g for 30 min, the supernatant is diluted with DMSO and analyzed by HPLC. A two-point calibration plot of the test compound in DMSO is used for quantification.
Agilent 1100 with DAD (G1315A), quat. pump (G1311A), autosampler CTC HTS PAL, degasser (G1322A) and column thermostat (G1316A); column: Phenomenex Gemini C18, 5 μm, 50 mm×2 mm; temperature: 40° C.; eluent A: water/phosphoric acid pH 2, eluent B: acetonitrile; flow rate: 0.7 ml/min; gradient: 0-0.5 min 85% A, 15% B; ramp 0.5-3 min 10% A, 90% B; 3-3.5 min 10% A, 90% B; ramp 3.5-4 min 85% A, 15% B; 4-5 min 85% A, 15% B.
Agilent 1100 with DAD (G1315A), quat. pump (G1311A), autosampler CTC HTS PAL, degasser (G1322A) and column thermostat (G1316A); column: VDSoptilab Kromasil 100 C18, 3.5 μm, 60 mm×2.1 mm; temperature: 30° C.; eluent A: water+5 ml of perchloric acid/liter, eluent B: acetonitrile; flow rate: 0.75 ml/min; gradient: 0-0.5 min 98% A, 2% B; ramp 0.5-4.5 min 10% A, 90% B; 4.5-6 min 10% A, 90% B; ramp 6.5-6.7 min 98% A, 2% B; 6.7-7.5 min 98% A, 2% B.

Setting [5] is: saline or isotonic, 5% strength aqueous dextrose solution.

`N#Cc1c(N)nc(SCc2csc(-c3ccc(Cl)cc3)n2)c(C#N)c1-c1ccc(OCCOP(=O)(O)O)cc1` [Example 1, 2-{4-[2-Amino-6-({[2-(4-chlorophenyl)-1,3-thiazol-4-yl]methyl}thio)-3,5-dicyanopyridin-4-yl]-phenoxy}ethyl dihydrogenphosphate]: in series [1] (pH 4, 37° C.), the “% test substance after 4 h [F(t = 4 h) × 100/F(t = 0 h)]” value (shortened to “% test substance after 4 h”) is given as 100% and the “% test substance after 24 h [F(t = 24 h) × 100/F(t = 0 h)]” value (“% test substance after 24 h” below) was 100%. Moreover, in series [1] (pH 8, 37° C.), the “% test substance after 4 h” value was found to be 100% and the “% test substance after 24 h” value turned out to be 100%. In series [2], the “Detectability of the test substance (prodrug) in plasma” value is recorded as “no longer detectable in plasma even at the first measurement point”. Besides, the Heart rate decrease in series [3] was found to be 16%.

The term solubility denotes the dissolved amount per volume that the medium holds. In series [4] (setting [5]), `N#Cc1c(NC(=O)CCCN)nc(SCc2csc(-c3ccc(Cl)cc3)n2)c(C#N)c1-c1ccc(OCCOC(=O)CCCN)cc1` [Example 25, 2-(4-{2-[(4-Aminobutanoyl)amino]-6-({[2-(4-chlorophenyl)-1,3-thiazol-4-yl]methyl}thio)-3,5-di-cyanopyridin-4-yl}phenoxy)ethyl 4-aminobutanoate dihydrochloride] gave a solubility at 24 h of 730 µg/mL. For the same compound, in series [1] (pH 4, 37° C.), the “% test substance after 4 h” value was found to be 100% and the “% test substance after 24 h” value is 100%. Besides, in series [1] (pH 7.4, 37° C.), the “% test substance after 4 h” value stood at 41% and the “% test substance after 24 h” value came to 4%.

In the case of `N#Cc1c(NC(=O)CCN)nc(SCc2csc(-c3ccc(Cl)cc3)n2)c(C#N)c1-c1ccc(OCCOC(=O)CCN)cc1` [Example 26, 2-{4-[2-(beta-Alanylamino)-6-({[2-(4-chlorophenyl)-1,3-thiazol-4-yl]methyl}thio)-3,5-dicyano-pyridin-4-yl]phenoxy}ethyl beta-alaninate dihydrochloride], the solubility at 24 h in series [4] (setting [5]) is > 500 µg/mL. The “% test substance after 4 h” value is on record as 100% in series [1] (pH 4, 37° C.) and 11% in series [1] (pH 7.4, 37° C.). Moreover, the “% test substance after 24 h” value was 100% in series [1] (pH 4, 37° C.) and 2% in series [1] (pH 7.4, 37° C.).

In turn, `CC(C)[C@H](N)C(=O)OCCOc1ccc(-c2c(C#N)c(NC(=O)CCCN(C)C)nc(SCc3csc(-c4ccc(Cl)cc4)n3)c2C#N)cc1` [Example 37, 2-{4-[2-({[2-(4-Chlorophenyl)-1,3-thiazol-4-yl]methyl}thio)-3,5-dicyano-6-{[4-(dimethylamino)-butanoyl]amino}pyridin-4-yl]phenoxy}ethyl L-valinate bistrifluoracetate] displayed a solubility at 24 h in series [4] (setting [5]) of 160 µg/mL (≈ 218 µM). In series [1] (pH 4, 37° C.), the “% test substance after 4 h” value was found to be 100% and the “% test substance after 24 h” value was 100%. In series [1] (pH 7.4, 37° C.), the “% test substance after 4 h” value was determined as 97% and the “% test substance after 24 h” value came out at 84%.

Turning to `N#Cc1c(N)nc(SCc2csc(-c3ccc(Cl)cc3)n2)c(C#N)c1-c1ccc(OCCOC(=O)[C@@H](N)CCCNC(=N)N)cc1` [Example 38, 2-{4-[2-Amino-6-({[2-(4-chlorophenyl)-1,3-thiazol-4-yl]methyl}sulfanyl)-3,5-dicyanopyridin-4-yl]-phenoxy}ethyl L-argininate trihydrochloride], in series [4] (setting [5]), the solubility at 24 h is > 500 µg/mL. In addition, the “% test substance after 4 h” value in series [1] (pH 4, 37° C.) is 100%; in series [1] (pH 7.4, 37° C.), 100%. In addition, the “% test substance after 24 h” value in series [1] (pH 4, 37° C.) stood at 100%; in series [1] (pH 7.4, 37° C.), 94%.

Regarding `N#Cc1c(N)nc(SCc2csc(-c3ccc(Cl)cc3)n2)c(C#N)c1-c1ccc(OCCOC(=O)[C@H](N)CCCN)cc1` [Example 39, 2-{4-[2-Amino-6-({[2-(4-chlorophenyl)-1,3-thiazol-4-yl]methyl}sulfanyl)-3,5-dicyanopyridin-4-yl]-phenoxy}ethyl D-ornithinate dihydrochloride], in series [4] (setting [5]), the solubility at 24 h is > 500 µg/mL. In series [1] (pH 4, 37° C.), the “% test substance after 4 h” value is 100% and the “% test substance after 24 h” value is on record as 100%. Also, in series [1] (pH 7.4, 37° C.), the “% test substance after 4 h” value came out at 0% and the “% test substance after 24 h” value is recorded as 0%.

As to `N#Cc1c(N)nc(SCc2csc(-c3ccc(Cl)cc3)n2)c(C#N)c1-c1ccc(OCCOC(=O)[C@@H](N)CN)cc1` [Example 40, 2-{4-[2-Amino-6-({[2-(4-chlorophenyl)-1,3-thiazol-4-yl]methyl}sulfanyl)-3,5-dicyanopyridin-4-yl]-phenoxy}ethyl-3-amino L-alaninate dihydrochloride], the solubility at 24 h in series [4] (setting [5]) is > 500 µg/mL. Besides, the “% test substance after 4 h” value in series [1] (pH 4, 37° C.) was determined as 99%; in series [1] (pH 7.4, 37° C.), 90%. Also, the “% test substance after 24 h” value was determined as 94% in series [1] (pH 4, 37° C.) and 53% in series [1] (pH 7.4, 37° C.).

For `N#Cc1c(N)nc(SCc2csc(-c3ccc(Cl)cc3)n2)c(C#N)c1-c1ccc(OCCO)cc1` [compound (A), 2-amino-6-({[2-(4-chlorophenyl)-1,3-thiazol-4-yl]methyl}thio)-4-[4-(2-hydroxy-ethoxy)phenyl]pyridine-3,5-dicarbonitrile, reference compound], the solubility at 24 h is < 1 µg/mL in series [4] (aqueous buffer, dilute hydrochloric acid (pH 4)) and < 0.1 µg/mL in series [4] (setting [5]). For the same compound, the Heart rate decrease in series [3] came to 24%.
